In paper PMC7501296, “Rapid and direct control of target protein levels with VHL-recruiting dTAG molecules” (Nature Communications, 2020):
Several values for one entry are separate records, joined by “and”; a condition that tells them apart may be missing. Identical values can stand only once. Each block holds one molecule with its values, some of them ahead of it.

Key:
Type in all cases: cell-based
[1] = system: PATU-8902 FKBP12^F36V-KRAS^G12V; KRAS^-/- clone; assay: Antiproliferation, PATU-8902 FKBP12F36V-KRASG12V; KRAS-/- clone, 2D-monolayer (CellTiter-Glo)
[2] = target: T1, FKBP12^WT-Nluc (Homo sapiens, UniProt P62942); assay: FKBP12WT-Nluc dual luciferase assay (293FT); details: 24 h; for DMSO-normalized ratio of Nluc/Fluc signal: 293FT FKBP12WT-Nluc
T1 construct: expressed in transfected cells; host or cells: 293FT
T1 sequence (P62942 2-108 limits assumed): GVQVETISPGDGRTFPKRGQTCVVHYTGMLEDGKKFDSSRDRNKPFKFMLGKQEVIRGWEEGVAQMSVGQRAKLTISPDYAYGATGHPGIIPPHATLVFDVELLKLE
Procedure, shortened: (§1)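 293FT cells expressing FKBP12^WT-Nluc or FKBP12^F36V-Nluc with Fluc were treated with compound for 24 h at 37 °C. Fluc, then Nluc, luminescence was read with Dual-Glo reagents. Values are DMSO-normalised Nluc/Fluc ratios.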

[3] = system: PATU-8902 LACZ-FKBP12^F36V clone; assay: Antiproliferation, PATU-8902 LACZ-FKBP12F36V clone, 3D-spheroid (CellTiter-Glo)
Procedure, shortened: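 Viability of cells grown as ultra-low adherent 3D-spheroids was determined with the CellTiter-Glo reagent (Promega). Luminescence was read on either an Envision 2104 plate reader (PerkinElmer) or a Fluostar Omega Reader (BMG Labtech). The resulting data were analyzed with GraphPad PRISM v8.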

[4] = target: T2, FKBP12^F36V-Nluc (Homo sapiens, UniProt P62942, F37V); assay: FKBP12F36V-Nluc dual luciferase assay (293FT); details: 24 h; for DMSO-normalized ratio of Nluc/Fluc signal: 293FT FKBP12F36V-Nluc
T2 construct: expressed in transfected cells; host or cells: 293FT
T2 sequence (P62942 2-108 F37V limits assumed): as the sequence (P62942 2-108 limits assumed) above, with F36V counted along it
Procedure, shortened: as §1

[5] = log10[compound] (M) -5.69897, replicate values
[6] = log10[compound] (M) -6.19897, replicate values
[7] = log10[compound] (M) -6.69897, replicate values
[8] = log10[compound] (M) -7.19897, replicate values
[9] = log10[compound] (M) -7.69897, replicate values
[10] = log10[compound] (M) -8.19897, replicate values
[11] = log10[compound] (M) -8.69897, replicate values
[12] = log10[compound] (M) -9.19897, replicate values
[13] = log10[compound] (M) -9.69897, replicate values
[14] = log10[compound] (M) -10.199, replicate values
[15] = log10[compound] (M) -5.30103, single replicates
[16] = log10[compound] (M) -5.80103, single replicates
[17] = log10[compound] (M) -6.30103, single replicates
[18] = log10[compound] (M) -6.80103, single replicates
[19] = log10[compound] (M) -7.30103, single replicates
[20] = log10[compound] (M) -7.80103, single replicates
[21] = log10[compound] (M) -8.30103, single replicates
[22] = log10[compound] (M) -8.80103, single replicates
[23] = log10[compound] (M) -9.30103, single replicates
[24] = log10[compound] (M) -9.80103, single replicates

- DMSO-normalized ratio of Nluc/Fluc signal [4, 16]: 7.24 and 7.457 and 10.3426 and 8.644
- DMSO-normalized ratio of Nluc/Fluc signal [4, 17]: 8.366 and 8.818 and 6.862 and 6.126
- DMSO-normalized ratio of Nluc/Fluc signal [4, 18]: 7.33 and 5.168 and 6.329 and 6.447
- DMSO-normalized ratio of Nluc/Fluc signal [4, 19]: 10.0232 and 16.06 and 10.9144 and 8.614
SMILES: CC[C@H](C(=O)N1CCCC[C@H]1C(=O)O[C@H](CCc1ccc(OC)c(OC)c1)c1ccccc1OCC(=O)NCCCCCCOc1cccc2c1C(=O)N(C1CCC(=O)NC1=O)C2=O)c1cc(OC)c(OC)c(OC)c1 (some centres unmarked) [dTAG-13]
- DMSO-normalized antiproliferation [1, 5]: 10.9257 and 6.898 and 8.446 and 8.371
- DMSO-normalized antiproliferation [1, 6]: 11.932 and 10.4461 and 13.2552 and 12.7525
- DMSO-normalized antiproliferation [1, 7]: 9.655 and 9.596 and 10.3089 and 13.0861
- DMSO-normalized antiproliferation [1, 8]: 15.4438 and 14.4907 and 17.4502 and 15.1305
- DMSO-normalized antiproliferation [1, 9]: 47.914 and 33.2029 and 20.7399 and 31.0479
- DMSO-normalized antiproliferation [1, 10]: 58.9433 and 77.5971 and 44.7261 and 57.0103
- DMSO-normalized antiproliferation [1, 11]: 103.967 and 74.9703 and 94.8172 and 78.6857
- DMSO-normalized antiproliferation [1, 12]: 94.4313 and 115.825 and 99.9239 and 85.5403
- DMSO-normalized antiproliferation [1, 13]: 101.606 and 85.9324 and 94.5986 and 110.248
- DMSO-normalized antiproliferation [1, 14]: 88.9654 and 100.345 and 66.0988 and 85.3394
- DMSO-normalized ratio of Nluc/Fluc signal [2, 15]: 68.0018 and 52.1082 and 49.2679 and 67.0893
- DMSO-normalized ratio of Nluc/Fluc signal [2, 16]: 39.4179 and 40.0508 and 57.6875 and 62.3631
- DMSO-normalized ratio of Nluc/Fluc signal [2, 17]: 61.6189 and 51.8679 and 71.8125 and 45.1167
- DMSO-normalized ratio of Nluc/Fluc signal [2, 18]: 68.675 and 79.0108 and 77.6288 and 57.0488
- DMSO-normalized ratio of Nluc/Fluc signal [2, 19]: 95.7266 and 46.8613 and 87.0104 and 66.427
- DMSO-normalized ratio of Nluc/Fluc signal [2, 20]: 86.0033 and 61.1842 and 69.3744 and 83.8873
- DMSO-normalized ratio of Nluc/Fluc signal [2, 21]: 94.8586 and 72.3429 and 122.034 and 94.0336
- DMSO-normalized ratio of Nluc/Fluc signal [2, 22]: 101.052 and 65.5195 and 71.6364 and 55.6566
- DMSO-normalized ratio of Nluc/Fluc signal [2, 23]: 113.35 and 121.354 and 97.4549 and 93.7336
- DMSO-normalized ratio of Nluc/Fluc signal [2, 24]: 115.063 and 75.6978 and 95.0976 and 66.8915
- DMSO-normalized antiproliferation [3, 5]: 83.5347 and 77.755 and 106.784 and 100.802
- DMSO-normalized antiproliferation [3, 6]: 108.447 and 95.2018 and 93.9194 and 111.801
- DMSO-normalized antiproliferation [3, 7]: 105.932 and 113.702 and 105.116 and 107.515
- DMSO-normalized antiproliferation [3, 8]: 104.318 and 154.981 and 104.434 and 95.3632
- DMSO-normalized antiproliferation [3, 9]: 98.1432 and 118.54 and 142.668 and 106.77
- DMSO-normalized antiproliferation [3, 10]: 105.712 and 98.6185 and 105.909 and 92.2738
- DMSO-normalized antiproliferation [3, 11]: 108.958 and 119.361 and 97.2958 and 103.25
- DMSO-normalized antiproliferation [3, 12]: 89.1127 and 99.6498 and 108.86 and 111.989
- DMSO-normalized antiproliferation [3, 13]: 97.9056 and 108.178 and 110.59 and 112.891
- DMSO-normalized antiproliferation [3, 14]: 91.8389 and 92.6594 and 105.927 and 94.166
- DMSO-normalized ratio of Nluc/Fluc signal [4, 15]: 16.9532 and 13.2908 and 14.9671 and 13.7454
- DMSO-normalized ratio of Nluc/Fluc signal [4, 20]: 17.0708 and 14.82 and 12.6407 and 10.0196
- DMSO-normalized ratio of Nluc/Fluc signal [4, 21]: 27.5948 and 22.2337 and 28.8782 and 22.7323
- DMSO-normalized ratio of Nluc/Fluc signal [4, 22]: 41.1668 and 39.5241 and 40.8834 and 34.8862
- DMSO-normalized ratio of Nluc/Fluc signal [4, 23]: 85.0231 and 74.0396 and 80.0349 and 60.0307
- DMSO-normalized ratio of Nluc/Fluc signal [4, 24]: 71.5411 and 59.8417 and 77.3242 and 60.4301

SMILES: CCC(C(=O)N1CCCCC1C(=O)OC(CCc1ccc(OC)c(OC)c1)c1ccccc1OCC(=O)NCCCCCCC(=O)NC(C(=O)N1CC(O)CC1C(=O)NC(C)c1ccc(-c2scnc2C)cc1)C(C)(C)C)c1cc(OC)c(OC)c(OC)c1 (centres unmarked) [dTAG^V-1-NEG]
- DMSO-normalized antiproliferation [1, 5]: 4.32 and 6.388 and 6.155 and 5.991
- DMSO-normalized antiproliferation [1, 6]: 32.3489 and 36.7324 and 47.9927 and 46.6785
- DMSO-normalized antiproliferation [1, 7]: 83.4764 and 91.9957 and 98.0856 and 85.7695
- DMSO-normalized antiproliferation [1, 8]: 140.095 and 133.654 and 96.5457 and 87.6299
- DMSO-normalized antiproliferation [1, 9]: 124.703 and 107.666 and 124.781 and 104.227
- DMSO-normalized antiproliferation [1, 10]: 100.524 and 126.087 and 110.25 and 83.3074
- DMSO-normalized antiproliferation [1, 11]: 126.672 and 110.141 and 94.4012 and 101.209
- DMSO-normalized antiproliferation [1, 12]: 119.782 and 117.251 and 170.771 and 120.652
- DMSO-normalized antiproliferation [1, 13]: 93.2126 and 100.867 and 84.0534 and 89.6654
- DMSO-normalized antiproliferation [1, 14]: 113.321 and 95.7713 and 117.376 and 100.982
- Effect on FKBP12WT-Nluc (in words) ([2]; 293FT): no activity
- DMSO-normalized antiproliferation ([3]; 120 h, log10[compound] (M) -5.69897, single replicates): 68.4913 and 65.8862 and 68.8321 and 78.0465
- DMSO-normalized antiproliferation ([3]; 120 h, log10[compound] (M) -6.19897, single replicates): 88.8571 and 103.865 and 101.246 and 98.2508
- DMSO-normalized antiproliferation ([3]; 120 h, log10[compound] (M) -6.69897, single replicates): 91.2022 and 101.677 and 109.864 and 107.932
- DMSO-normalized antiproliferation ([3]; 120 h, log10[compound] (M) -7.19897, single replicates): 113.68 and 101.811 and 126.495 and 101.479
- DMSO-normalized antiproliferation ([3]; 120 h, log10[compound] (M) -7.69897, single replicates): 124.531 and 121.356 and 110.765 and 105.317
- DMSO-normalized antiproliferation ([3]; 120 h, log10[compound] (M) -8.19897, single replicates): 119.921 and 92.6191 and 101.851 and 115.03
- DMSO-normalized antiproliferation ([3]; 120 h, log10[compound] (M) -8.69897, single replicates): 108.505 and 98.1611 and 108.837 and 115.846
- DMSO-normalized antiproliferation ([3]; 120 h, log10[compound] (M) -9.19897, single replicates): 113.362 and 108.537 and 123.253 and 101.067
- DMSO-normalized antiproliferation ([3]; 120 h, log10[compound] (M) -9.69897, single replicates): 112.187 and 102.493 and 128.974 and 86.9201
- DMSO-normalized antiproliferation ([3]; 120 h, log10[compound] (M) -10.199, single replicates): 94.0987 and 98.1746 and 115.316 and 84.3777
- Degradation of FKBP12F36V-Nluc (in words) ([4]; 293FT): no activity
